In patent publication US9895357B2, “Compositions, methods and kits for reducing lipid levels” (NuSirt Sciences, Inc., priority 2013, dated 2018):

Tests used:
[1] = test system: LDL receptor knockout (LDLRKO) mice; test: Example 7: plasma total cholesterol, cholesterol esters and triglycerides in LDLRKO mice on western diet; type: in vivo; settings: four weeks
Procedure: (§1) The mice were provided free access to an atherogenic western diet (WD) containing 0.21% cholesterol (by weight) and 40% calories from fat and water for 4 weeks prior to treatment. […] The treatments were administered for eight weeks continuously.
Blood samples of the mice in all groups were obtained from tails of the mice at following four and eight weeks of administration. The serum/plasma levels of triglyceride, total cholesterol and cholesterol esters were measured. Following treatment, food was removed for four hours and the animals were euthanized.
Blood was collected into EDTA-coated tubes to analyze plasma lipid and cholesterol profiles. Plasma total cholesterol (TC, Pointe Scientific, Canton, Mich.), free cholesterol (FC, Wako, Richmond, Va.) and triglyceride (TG, Wako, Richmond, Va.) concentrations were measured using enzymatic assays according to manufacturer's instructions. Cholesterol ester (CE) was calculated as the difference between TC and FC.

[2] = test system: LDL receptor knockout (LDLRKO) mice; test: Example 7: atherosclerotic lesion area and Oil Red O positive area in LDLRKO mice; type: in vivo; settings: eight weeks
Procedure: as §1
To assess atherosclerosis, the circulatory system was perfused following euthanasia with phosphate-buffered saline (PBS) before removing the heart and aorta. The upper one-third of the heart was dissected and embedded in Optimal Cutting Temperature Compound (Sakura Tissue-Tek, Torrance, Calif.), frozen, and stored at −80° C. Blocks were serially cut at 8 μm intervals and stained with hematoxylin and 0.5% Oil Red O (Sigma-Aldrich) to evaluate aortic sinus atherosclerotic intimal area. Atherosclerotic lesion area and Oil Red O positive area were quantified using Image-Pro Plus software (Media Cybemetics, Bethesda, Md.). Whole aorta (from sinotubular junction to iliac bifurcate) was dissected and fixed in 10% formalin, and the adventitia was cleaned. Aortas were opened along the longitudinal axis and pinned onto black silicon elastomer (Rubber-Cal, Santa Ana, Calif.) for the quantification of atherosclerotic lesion area. The percentage of total aortic surface covered with atherosclerotic lesions was quantified by Image-Pro Plus software (Media Cybemetics, Bethesda, Md.) and used to determine the total lesion area.

[3] = test system: LDL receptor knockout (LDLRKO) mice; test: Example 7: aortic macrophage infiltration (CD68 positive area) in LDLRKO mice; type: in vivo; settings: eight weeks
Procedure: as §1
To assess macrophage infiltration, Sections of aortic sinus were immuno-stained with rat monoclonal antibody against macrophage-specific CD68 (Clone FA11, 1:75, AbD Serotec, Raleigh, N.C.) followed by staining with alkaline phosphatase-conjugated mouse anti-rat (for CD68, 1:50) secondary antibodies (Jackson ImmunoResearch laboratories, West Grove, Pa.). Control slides contain no primary antibody. The CD68-positive areas were analyzed using Image-Pro Plus software (Media Cybemetics, Bethesda, Md.).

C. elegans = test: Lifespan in C. elegans; type: in vivo, Caenorhabditis elegans; settings: leucine 0.5 mM, nicotinic acid 10 nM; basal conditions
Procedure: Eggs were hatched on a starved plate overnight. […] To study lifespan, 50 young adult worms were placed on NGM agar plates seeded with E. coli strain OP-50 (=day 1 of study). All treatments were added with the indicated concentrations to E. coli the agar plates. […] The worms were maintained at 20° C. throughout the duration of the study. Worms were transferred to new plates daily to eliminate progeny. […] The study was continued until the last animal was dead. Data were analyzed via Kaplan-Meier survival curves using Prism 6 (GraphPad Software) and statistical significance was determined by the Log-rank (Mantel-Cox) test.

Sirt1 [4] = settings: 0.5 mM for leucine and 5 μM for HMB; previously shown; cited from earlier work
AMPK [5] = settings: 0.5 mM for leucine and 5 μM for HMB; previously shown; cited from earlier work
Sirt1 [6] = test system: Sirt1
Procedure: C2C12 mouse myoblasts (American Type Culture Collection) were plated at a density of 8000 cells/cm^2 (10 cm^2 dish) and grown in Dulbecco's modified eagle's medium (DMEM) containing 10% fetal bovine serum (FBS), and antibiotics (growth medium) at 37° C. in 5% CO2. For differentiation of C2C12 cells, cells were grown to 100% confluence, transferred to differentiation medium (DMEM with 2% horse serum and 1% penicillin-streptomycin), and fed with fresh differentiation medium every day until myotubes were fully formed (3 days).
Total 35 μg of protein from the cell lysate was resolved on 10% Tris/HCL polyacrylamide gels (Criterion precast gel, Bio-Rad Laboratories, Hercules, Calif.), transferred to PVDF membranes, incubated in blocking buffer (3% BSA in TBS), incubated with primary antibody, washed and incubated with secondary horseradish peroxidase-conjugated antibody.

AMPK [7] = test system: AMPK
Procedure: 3T3-L1 preadipocytes (American Type Culture Collection) were plated at a density of 8000 cells/cm2 (10 cm2 dish) and grown in Dulbecco's modified eagle's medium (DMEM) containing 10% fetal bovine serum (FBS), and antibiotics (growth medium) at 37° C. in 5% CO2. […] Preadipocytes were maintained in this differentiation medium for 3 days and subsequently cultured in growth medium. Cultures were re-fed every 2-3 days to allow >90% cells to reach fully differentiation before conducting chemical treatment.
Western blotting was performed with antibodies against AMPK and Phospho-AMPKα (Thr172) obtained from Cell Signaling (Danvers, Mass.). […] Total 30 μg of protein from the cell lysate was resolved on 10% Tris/HCL polyacrylamide gels (Criterion precast gel, Bio-Rad Laboratories, Hercules, Calif.), transferred to PVDF membranes, incubated in blocking buffer (3% BSA in TBS), incubated with primary antibody (P-AMPK), washed and incubated with secondary horseradish peroxidase-conjugated antibody.

[8] = test system: LDL receptor knockout (LDLRKO) mice; settings: NA alone 10 g/kg diet = group (e); NA 250 mg + Leu 24 g/kg diet; groups (a)-(d) as
Procedure: All chemicals are purchased from Sigma.
The serum/plasma levels of triglyceride, cholesterol, LDL and HDL are measured. Cutaneous vasodilation is measured by laser-Doppler flowmeter.

[9] = test system: Patients pre-diagnosed with hyperlipidemia; settings: NA alone 3000 mg = group (e); NA 50 mg + Leu 1135 mg; groups (a)-(d) as
Procedure: Patients that are pre-diagnosed with hyperlipidemia are admitted for the randomized and double blind study. […] The treatments are administered orally twice a day, for 60 days continuously.
Blood samples of the patients in all groups are obtained from at day 0, 30 and 60 after the administration. The serum/plasma levels of triglyceride, cholesterol, LDL and HDL are measured. Cutaneous vasodilation is measured by laser-Doppler flowmeter and the discomfort level described by the patients.

[10] = oral dosing of about 3,000 mg; cited from earlier work
[11] = leucine 24 g/kg diet alone, or with nicotinic acid 50 or 250 mg/kg diet, compared with NA 1,000 mg/kg diet
[12] = leucine 24 g/kg diet alone, or with nicotinic acid 50 mg/kg diet, compared with NA 1,000 mg/kg diet

With `CC(C)C[C@H](N)C(=O)O` [leucine] the “effect on plasma cholesterol esters” value [1, 11] was “no independent effect”, the “effect on plasma total cholesterol” value [1, 11] was “no independent effect” and the “effect on lesion (plaque) area” value [2, 12] was “exerted an independent effect on plaque area”. For the same compound, the “effect on aortic macrophage infiltration” value [3, 12] was “significant independent effect on reducing macrophage infiltration”, the effect on lifespan (C. elegans) was “no independent effect” and the “therapeutic effect on these variables when administered alone” value (Sirt1 [4]) was “no therapeutic effect”. The “therapeutic effect on these variables when administered alone” value (AMPK [5]) was “no therapeutic effect”.

In the case of `O=C(O)c1cccnc1` [nicotinic acid], the “effect on Sirt1 levels” value (Sirt1 [6]; C2C12 myotubes, 24 hours, nicotinic acid 10 nM alone or with 0.5 mM leucine) is reported as “did not have a significant effect”, the “concentrations of nicotinic acid alone found to exert no effect” value (Sirt1 [6]; dose-response study, C2C12 cells) is reported as < 100 nM and the “AMPK activation (P-AMPK/AMPK)” value (AMPK [7]; differentiated 3T3-L1 adipocytes, 24 hours, nicotinic acid 10 nM, leucine 0.5 mM, resveratrol 200 nM) is reported as “no significant effect”. For the same compound, the “concentrations of nicotinic acid alone found to exert no effect” value (AMPK [7]; dose-response study, 3T3-L1 cells) was < 100 nM, the cutaneous vasodilation [8] was “significant higher cutaneous vasodilation” and the “cutaneous vasodilation and patient complaints” value [9] was “significant higher cutaneous vasodilation and more complaints from the patients”. The “decrease in plasma total cholesterol” value ([1]; nicotinic acid 1,000 mg/kg diet added to western diet, p<0.01) was 20%, the “decrease in plasma cholesterol esters” value ([1]; nicotinic acid 1,000 mg/kg diet, CE calculated as TC minus FC, p<0.002) was 28% and the “decrease in plasma triglycerides” value ([1]; nicotinic acid 1,000 mg/kg diet, p<0.01) was 32%. The “decrease in atherosclerotic lesion size” value ([2]; nicotinic acid 1,000 mg/kg diet, relative to western diet alone) was ~50%, the “decrease in aortic macrophage infiltration” value ([3]; nicotinic acid 1,000 mg/kg diet, % CD68 positive area) was ~50% and the effect on lifespan (C. elegans) was “no independent effect”. For the same compound, the “circulating level of nicotinic acid or nicotinamide riboside” value [10] was “about 10 μM”.

In the case of `NC(=O)c1ccc[n+]([C@@H]2O[C@H](CO)[C@@H](O)[C@H]2O)c1` [nicotinamide riboside], the “circulating level of nicotinic acid or nicotinamide riboside” value [10] is given as “about 10 μM”.
